As usually defined, the IC50 is the concentration needed to halve the response being measured. The low end stands for higher potency, the high end for lower potency.

These results are taken from ChEMBL document CHEMBL4364251, “Design, synthesis and biological evaluation of new quinoline derivatives as potential antitumor agents” (Eur J Med Chem, 2019).

Holding throughout (format): functional, cell-based
One experiment relates to RKO. Description: Antiproliferative activity against human RKO cells incubated for 48 hrs by MTT assay. Background: Formazan colour is commonly taken as a measure of viable cells.
For a further experiment, the system named is HeLa. In words: Antiproliferative activity against human HeLa cells incubated for 48 hrs by MTT assay.
For the next experiment, the system named is HCT-116. Description: Antiproliferative activity against human HCT116 cells incubated for 48 hrs by MTT assay. The following applies: HCT-116, 48 h.
Another experiment relates to A549. Description: Antiproliferative activity against human A549 cells incubated for 48 hrs by MTT assay. Conditions: A549, 48 h.
Another experiment concerns NCI-H1650. Description: Antiproliferative activity against human NCI-H1650 cells incubated for 48 hrs by MTT assay. Conditions: NCI-H1650, 48 h.
The test system of the next experiment is BGC-823. Description: Antiproliferative activity against human BGC823 cells incubated for 48 hrs by MTT assay. The following applies: BGC-823, 48 h.
The subject of another experiment is A2780. In words: Antiproliferative activity against human A2780 cells incubated for 48 hrs by MTT assay. The following applies: A2780, 48 h.

For `Fc1cccc(Nc2ccnc3cc(OCCCc4ccccc4)ccc23)c1`, the IC50 in the experiment on RKO is more than 10 µM; in the experiment on HeLa, 0.25 µM; in the experiment on HCT-116, more than 10 µM; with A549, more than 10 µM; with NCI-H1650, more than 10 µM; with BGC-823, more than 10 µM. The molecule further came in with a 50% inhibitory concentration (IC50) with A2780 of 4.62 µM.

As to `Fc1ccc2c(Nc3cccc(Br)c3)ccnc2c1`, the concentration for half-maximal inhibition (IC50) with RKO, in the experiment with HeLa, in the experiment with HCT-116, in the experiment with A549, with NCI-H1650 and in the experiment on BGC-823 was more than 10 µM throughout. Also, in the experiment on A2780, the IC50 is more than 10 µM.

With `CCOc1ccc2c(Nc3cccc([N+](=O)[O-])c3)ccnc2c1`, the half-maximal inhibitory concentration (IC50) was more than 10 µM with RKO; 3.42 µM with HeLa; more than 10 µM in the experiment on HCT-116; more than 10 µM in the experiment with A549; more than 10 µM in the experiment on NCI-H1650; more than 10 µM in the experiment on BGC-823. The concentration for half-maximal inhibition (IC50) in the experiment on A2780 was more than 10 µM.

With `Fc1ccc(COc2ccc3c(Nc4cccc(F)c4)ccnc3c2)cc1`, the IC50 in the experiment on RKO, in the experiment on HeLa, in the experiment on HCT-116, in the experiment with A549, with NCI-H1650 and in the experiment on BGC-823 was more than 10 µM in each case. Moreover, the 50% inhibitory concentration (IC50) with A2780 is more than 10 µM.

For `Fc1cccc(Nc2ccnc3cc(Cl)ccc23)c1`, the half-maximal inhibitory concentration (IC50) with RKO, in the experiment on HeLa, in the experiment with HCT-116, in the experiment on A549, in the experiment with NCI-H1650 and in the experiment on BGC-823 was more than 10 µM in each case. Besides, the IC50 in the experiment with A2780 is more than 10 µM.

As for `CCCCCCCCOc1ccc2c(Nc3cccc(OC)c3)ccnc2c1`, the concentration for half-maximal inhibition (IC50) in the experiment with RKO was more than 10 µM; with HeLa, 7.72 µM; in the experiment on HCT-116, more than 10 µM; in the experiment on A549, more than 10 µM; in the experiment on NCI-H1650, 8.13 µM; with BGC-823, more than 10 µM. This molecule also showed an IC50 with A2780 of 8.21 µM.

In the case of `COc1cccc(Nc2ccnc3cc(Cl)ccc23)c1`, the IC50 in the experiment on RKO, in the experiment with HeLa, in the experiment with HCT-116, in the experiment with A549, in the experiment on NCI-H1650 and with BGC-823 was more than 10 µM each time. In the experiment on A2780, this molecule showed a half-maximal inhibitory concentration (IC50) of more than 10 µM.

For the molecule `CCCCOc1ccc2c(Nc3cccc(F)c3)ccnc2c1`, the IC50 was more than 10 µM with RKO; 1.43 µM in the experiment with HeLa; more than 10 µM in the experiment on HCT-116; more than 10 µM in the experiment on A549; more than 10 µM in the experiment on NCI-H1650; 9.42 µM in the experiment with BGC-823. This molecule also displayed an IC50 in the experiment on A2780 of 8.2 µM.

Consider `CCOc1ccc2c(Nc3cccc(OC)c3)ccnc2c1`, for which the IC50 in the experiment with RKO is more than 10 µM; in the experiment on HeLa, 0.41 µM; with HCT-116 it was more than 10 µM; with A549, more than 10 µM; in the experiment on NCI-H1650, more than 10 µM; in the experiment on BGC-823 it was more than 10 µM. In the experiment with A2780, this molecule showed a half-inhibitory concentration (IC50) of 9.55 µM.

For the molecule `C=CCOc1ccc2c(Nc3cccc([N+](=O)[O-])c3)ccnc2c1`, the 50% inhibitory concentration (IC50) in the experiment on RKO is more than 10 µM; in the experiment with HeLa it was 0.22 µM; in the experiment on HCT-116 it was more than 10 µM; in the experiment on A549, more than 10 µM; in the experiment on NCI-H1650 it was more than 10 µM; with BGC-823 it was 3.83 µM. Further, 6.77 µM corresponded to half-maximal inhibition in the experiment on A2780 (IC50).

As for `Fc1ccc2c(Nc3cccc(Cl)c3)ccnc2c1`, the IC50 in the experiment on RKO, in the experiment on HeLa, in the experiment on HCT-116, in the experiment with A549, with NCI-H1650 and in the experiment with BGC-823 was more than 10 µM in each case. For the same molecule, in the experiment on A2780, the IC50 is more than 10 µM.

As for `CC(C)Oc1ccc2c(Nc3cccc(F)c3)ccnc2c1`, the half-inhibitory concentration (IC50) with RKO is more than 10 µM; in the experiment on HeLa, 0.2 µM; in the experiment with HCT-116, more than 10 µM; with A549, more than 10 µM; with NCI-H1650 it was more than 10 µM; in the experiment with BGC-823, more than 10 µM. This molecule also came in with an IC50 with A2780 of 0.59 µM.

As for `C=CCOc1ccc2c(Nc3cccc(OC)c3)ccnc2c1`, the IC50 with RKO was more than 10 µM; in the experiment with HeLa it was 2.2 µM; in the experiment on HCT-116, more than 10 µM; in the experiment with A549, more than 10 µM; in the experiment on NCI-H1650, more than 10 µM; with BGC-823, 6.65 µM. The same molecule yielded an IC50 with A2780 of 8.06 µM.

For the molecule `CCCCCCCCOc1ccc2c(Nc3cccc(F)c3)ccnc2c1`, the IC50 with RKO came out at 9.54 µM; with HeLa, 4.3 µM; in the experiment with HCT-116 it was 9.3 µM; with A549, 9.52 µM; in the experiment with NCI-H1650 it was 9.45 µM; with BGC-823 it was 5.96 µM. The molecule further registered an IC50 with A2780 of 9.75 µM.

In the case of `Brc1cccc(Nc2ccnc3cc(Br)ccc23)c1`, the IC50 in the experiment with RKO, with HeLa, with HCT-116, in the experiment on A549, in the experiment with NCI-H1650 and with BGC-823 was more than 10 µM in each case. This molecule also gave an IC50 with A2780 of more than 10 µM.

Take `O=[N+]([O-])c1cccc(Nc2ccnc3cc(Cl)ccc23)c1`: the IC50 with RKO, with HeLa, with HCT-116, in the experiment on A549, in the experiment on NCI-H1650 and in the experiment with BGC-823 was more than 10 µM throughout. In addition, the IC50 with A2780 was more than 10 µM.

Consider `Fc1cccc(Nc2ccnc3cc(Br)ccc23)c1`, for which the IC50 with RKO, in the experiment with HeLa, with HCT-116, with A549, with NCI-H1650 and in the experiment with BGC-823 was more than 10 µM each time. The IC50 with A2780 is more than 10 µM.

As to `O=[N+]([O-])c1cccc(Nc2ccnc3cc(OCc4ccccc4)ccc23)c1`, the half-maximal inhibitory concentration (IC50) with RKO stood at 9.68 µM; with HeLa it was 5.39 µM; in the experiment with HCT-116 it was 8.76 µM; with A549, 9.49 µM; in the experiment with NCI-H1650, 9.54 µM; with BGC-823, 8.13 µM. It took 9.19 µM to reach half-maximal inhibition with A2780 (IC50).

With `CCCCOc1ccc2c(Nc3cccc(Br)c3)ccnc2c1`, the half-maximal inhibitory concentration (IC50) was more than 10 µM with RKO; 0.84 µM with HeLa; more than 10 µM in the experiment on HCT-116; more than 10 µM in the experiment on A549; more than 10 µM in the experiment on NCI-H1650; more than 10 µM in the experiment on BGC-823. The same molecule gave a half-maximal inhibitory concentration (IC50) in the experiment with A2780 of more than 10 µM.

`COc1cccc(Nc2ccnc3cc(OC)ccc23)c1`: the half-inhibitory concentration (IC50) with RKO, with HeLa, in the experiment on HCT-116, in the experiment on A549, in the experiment on NCI-H1650 and in the experiment on BGC-823 was more than 10 µM in each case. This molecule displayed a half-maximal inhibitory concentration (IC50) in the experiment with A2780 of more than 10 µM.

For `O=[N+]([O-])c1cccc(Nc2ccnc3cc(F)ccc23)c1`, the half-inhibitory concentration (IC50) in the experiment with RKO, in the experiment on HeLa, in the experiment with HCT-116, in the experiment on A549, with NCI-H1650 and with BGC-823 was more than 10 µM each time. Also, the IC50 in the experiment with A2780 is more than 10 µM.

Take `CCCCOc1ccc2c(Nc3cccc([N+](=O)[O-])c3)ccnc2c1`: the IC50 is 7.81 µM in the experiment on RKO; 4.35 µM with HeLa; 6.83 µM in the experiment with HCT-116; more than 10 µM in the experiment with A549; 9.56 µM in the experiment with NCI-H1650; 6.11 µM in the experiment on BGC-823. For the same molecule, it took 5.17 µM to reach half-maximal inhibition in the experiment on A2780 (IC50).

For `CCOc1ccc2c(Nc3cccc(F)c3)ccnc2c1`, the 50% inhibitory concentration (IC50) in the experiment with RKO is more than 10 µM; in the experiment with HeLa, 0.68 µM; in the experiment with HCT-116 it was more than 10 µM; in the experiment with A549, more than 10 µM; with NCI-H1650 it was more than 10 µM; with BGC-823 it was 9.85 µM. Also, in the experiment on A2780, the half-maximal inhibitory concentration (IC50) was more than 10 µM.

For `COc1ccc2c(Nc3cccc([N+](=O)[O-])c3)ccnc2c1`, the half-inhibitory concentration (IC50) was more than 10 µM with RKO; more than 10 µM with HeLa; more than 10 µM in the experiment on HCT-116; more than 10 µM with A549; more than 10 µM in the experiment with NCI-H1650; 7.45 µM with BGC-823. Besides, the IC50 in the experiment with A2780 is more than 10 µM.

For `COc1cccc(Nc2ccnc3cc(F)ccc23)c1`, the half-inhibitory concentration (IC50) with RKO, in the experiment on HeLa, with HCT-116, in the experiment with A549, in the experiment on NCI-H1650 and in the experiment on BGC-823 was more than 10 µM each time. The 50% inhibitory concentration (IC50) in the experiment on A2780 was more than 10 µM.

Take `COc1ccc2c(Nc3cccc(O)c3)ccnc2c1`: the IC50 in the experiment with RKO, in the experiment on HeLa, in the experiment on HCT-116, in the experiment on A549, in the experiment on NCI-H1650 and in the experiment on BGC-823 was more than 10 µM each time. The molecule further registered an IC50 with A2780 of more than 10 µM.

For `COc1ccc2c(Nc3cccc(F)c3)ccnc2c1`, the concentration for half-maximal inhibition (IC50) with RKO, in the experiment with HeLa, in the experiment with HCT-116, with A549, in the experiment with NCI-H1650 and in the experiment on BGC-823 was more than 10 µM throughout. Further, the half-maximal inhibitory concentration (IC50) in the experiment with A2780 is more than 10 µM.

With `CCCCCCCCOc1ccc2c(Nc3cccc([N+](=O)[O-])c3)ccnc2c1`, the IC50 in the experiment on RKO, in the experiment with HeLa, with HCT-116, in the experiment on A549, with NCI-H1650 and with BGC-823 was more than 10 µM in each case. The concentration for half-maximal inhibition (IC50) with A2780 is more than 10 µM.

Regarding `C=CCOc1ccc2c(Nc3cccc(F)c3)ccnc2c1`, the concentration for half-maximal inhibition (IC50) in the experiment on RKO was more than 10 µM; in the experiment on HeLa, 0.31 µM; with HCT-116, more than 10 µM; in the experiment with A549, more than 10 µM; in the experiment on NCI-H1650 it was more than 10 µM; in the experiment with BGC-823 it was more than 10 µM. In the experiment with A2780, this molecule gave an IC50 of 1.19 µM.

Consider `CCCCOc1ccc2c(Nc3cccc(OC)c3)ccnc2c1`, for which the half-maximal inhibitory concentration (IC50) was 8.1 µM in the experiment with RKO; 6.56 µM in the experiment with HeLa; 7.68 µM with HCT-116; more than 10 µM in the experiment on A549; 8.69 µM in the experiment with NCI-H1650; 7.26 µM with BGC-823. In the experiment with A2780, this molecule came in with a half-maximal inhibitory concentration (IC50) of 8.87 µM.
